In patent US10239957B2, “Peptide containing conjugates for dual molecular delivery of oligonucleotides” (Merck Sharp & Dohme Corp., priority 2013, dated 2019):
Where no end group is shown, it is not given here. [ ]: non-standard residue; d: D form. TGN = not defined here

System: CTNNB1
Assay: In vitro DMD assay: mRNA silencing enhancement by peptide conjugates after siRNA-IV treatment
Type: cell-based
Details: primary mouse hepatocytes, siRNA-IV 125 nM baseline
Method: Cryopreserved primary Mouse hepatocytes (Bioreclamation, LLC) were placed into Collagen Type I coated 96-well plates at 25,000 cells per well in serum-containing InVitroGRO CP media (Bioreclamation, LLC) and allowed 5 hours to attach. Media was replaced with InVitroGRO HI media and cells were treated with siRNA-IV at 125 nM [siRNA] for 1 hour. Media was replaced with InVitroGRO HI media and cells were treated for approximately 16 hours with experimental Peptide conjugates at various concentrations to establish a dose-response curve. Peptide conjugates were washed out after 16 hours with InVitroGRO HI media and cells allowed to incubate for an additional 24 hours. Cells were then lysed and mRNA expression of the siRNA target was measured by RT-qPCR (Applied Biosystems Taqman reagents). mRNA silencing activity of each Peptide conjugate was expressed as an enhancement above the baseline activity of 125 nM siRNA-IV alone with respect to the untreated cells and all siRNA target Ct values were normalized to PPIB mRNA for each well (dddCt) and summarized.
The structure of TGN-S-S-peptide is shown below and the activity data is listed in Table 5 (siRNA-IV concentration was kept at […]).

Substance	In vitro dddCt (vs. baseline SCE dose) (Targeted peptide dose 8 nM)	In vitro dddCt (vs. baseline SCE dose) (Targeted peptide dose 40 nM)	In vitro dddCt (vs. baseline SCE dose) (Targeted peptide dose 200 nM)	In vitro dddCt (vs. baseline SCE dose) (Targeted peptide dose 1000 nM)	In vitro dddCt (vs. baseline SCE dose) (Targeted peptide dose 5000 nM)	In vitro dddCt (vs. baseline SCE dose) (Targeted peptide dose 25 nM)	In vitro dddCt (vs. baseline SCE dose) (Targeted peptide dose 625 nM)	In vitro dddCt (vs. baseline SCE dose) (Targeted peptide dose 3125 nM)	In vitro dddCt (vs. baseline SCE dose) (Targeted peptide dose 125 nM)	In vitro dddCt (vs. baseline SCE dose) (Targeted peptide dose 15625 nM)
TGN-S-S-SEQ ID NO: 1764 (D) ([dC]G[dL][dF]G[dE][dI][dE][dE][dL][dI][dE][dE]G[dL][dE][dN][dL][dV][dD][dW]G[dN]G; not fully specified (residue 1); also: TGN conjugated via disulfide at Cys1; listed as Homo sapiens)	−0.03	−0.41	−0.78	−0.62	−0.75	–	–	–	–	–
TGN-S-S-SEQ ID NO: 1717 (L) (C(TGN)FLGALFHALSHLLENLIDWWNG; reading uncertain; also: TGN disulfide conjugate at Cys1; listed as Homo sapiens)	–	–	–	–	–	0.61	0.37	0.15	–	–
TGN-S-S-Seq-ID-61 (D) (CRRQRRKKRGYGYWWDILGKWGNEIFGEIAEFLG; not fully specified; TGN disulfide conjugate; D-amino acids; listed as Homo sapiens)	0.13	0.08	0.01	0	−0.55	–	–	–	–	–
TGN-S-S-SEQ ID NO: 1738 (D) (G[dL][dF]G[dE][dI][dE][dE][dL][dI][dE][dE]G[dL][dE][dN][dL][dI][dD][dW]G[dN]G[dL][dA][dE][dL][dA][dE][dA][dL][dE][dA][dL][dA][dA]GG[dS][dC]; not fully specified (residue 40); also: disulfide to TGN peptide via Cys40; listed as Homo sapiens)	−0.24	−0.67	−1.57	−1.69	−2.19	–	–	–	–	–
TGN-S-S-SEQ ID NO: 1747 (D) ([dC]G[dL][dF]G[dE][dI][dE][dE][dL][dL][dE][dE]G[dL][dE][dN][dL][dI][dD][dW]G[dN]G; not fully specified (residue 1); also: disulfide to TGN peptide via Cys1; listed as Homo sapiens)	−0.23	−0.7	−1.53	−2.08	−1.98	–	–	–	–	–
TGN-S-S-SEQ ID NO: 1633(D) ([dC]G[dL][dF]G[dE][dI][dH][dH][dL][dI][dH][dH]G[dL][dE][dN][dL][dI][dD][dW][dW][dN]G; not fully specified (residue 1); also: TGN attached via disulfide; listed as Homo sapiens)	–	–	–	–	–	–	−0.57	−0.37	−0.39	−0.69
TGN-S-S-SEQ ID NO: 1749 (D) ([dC]G[dL][dF]G[dE][dI][dE][dE][dL][dI][dE][dE]G[dF][dE][dN][dL][dI][dD][dW]G[dN]G; not fully specified (residue 1); also: disulfide to TGN peptide via Cys1; listed as Homo sapiens)	0.02	−0.04	−0.26	−0.22	−0.11	–	–	–	–	–
TGN-S-S-Seq-ID-54 (L) (C(TGN)FFGAIWEFIRSILEGLIDGWYGYGRKKRRQRR; reading uncertain; also: disulfide-linked to TGN peptide via Cys; listed as Homo sapiens)	0.03	−0.07	−0.16	−0.03	0.07	–	–	–	–	–
TGN-S-S-SEQ ID NO: 1797 (D) ([dC]G[dL][dF]G[dE][dW][dE][dE][dL][dI][dE][dE]G[dL][dE][dN][dL][dI][dD][dW]G[dN]G; not fully specified (residue 1); also: TGN conjugated via disulfide at Cys1; listed as Homo sapiens)	0	0.41	0.08	0.05	0.24	–	–	–	–	–
TGN-S-S-SEQ ID NO: 1762 (D) ([dC]G[dL][dF]G[dE][dI][dE][dE][dL][dI][dE][dE]G[dL][dE][dN][dF][dI][dD][dW]G[dN]G; not fully specified (residue 1); also: disulfide to TGN peptide via Cys1; listed as Homo sapiens)	−0.07	0.03	−0.17	−0.39	−0.08	–	–	–	–	–
TGN-S-S-Seq-ID-37 (L) (C(TGN)IFGAIAGFIKNIWKGLIDWWYG; reading uncertain; also: disulfide-linked to TGN peptide via Cys; listed as Homo sapiens)	0.02	0.14	−0.01	−0.19	−0.79	–	–	–	–	–
TGN-S-S-SEQ ID NO: 1784 (D) ([dC]G[dW][dF]G[dE][dI][dE][dE][dL][dI][dE][dE]G[dL][dE][dN][dL][dI][dD][dW]G[dN]G; not fully specified (residue 1); also: TGN conjugated via disulfide at Cys1; listed as Homo sapiens)	0.07	−0.22	−0.57	−1.01	−0.81	–	–	–	–	–
TGN-S-S-SEQ ID NO: 1765 (D) ([dC]G[dL][dF]G[dE][dI][dE][dE][dL][dI][dE][dE]G[dL][dE][dN][dL][dI][dE][dW]G[dN]G; not fully specified (residue 1); also: TGN conjugated via disulfide at Cys1; listed as Homo sapiens)	−0.04	−0.38	−0.88	−1.23	−1.23	–	–	–	–	–
